According to patent EP0630366B1, “SUBSTITUTED HETEROCYCLIC DERIVATIVES USEFUL AS PLATELET AGGREGATION INHIBITORS” (G.D. Searle & Co., priority 1991, dated 1993):

System: platelet aggregation
Assay: In-vitro platelet aggregation in PRP (ADP-induced)
Format: cell-based, dogs
Settings: Canis lupus familiaris; at 10^-5; dog platelet-rich plasma, ADP-induced aggregation; read-out: Dog PRP IC50 (cell prints inhibition at a single concentration)
Procedure: Healthy male or female dogs were fasted for 8 hours prior to drawing blood; then 30 ml whole blood was collected using a butterfly needle and 30 cc plastic syringe with 3 ml of 0.129 M buffered sodium citrate (3.8%). The syringe was rotated carefully as blood was drawn to mix the citrate. Platelet-rich plasma (PRP) was prepared by centrifugation at 975 x g for 3.17 minutes at room temperature allowing the centrifuge to coast to a stop without braking. The PRP was removed from the blood with a plastic pipette and placed in a plastic capped, 50 mL Corning conical sterile centrifuge tube which was held at room temperature. Platelet poor plasma (PPP) was prepared by centrifuging the remaining blood at 2000 x g for 15 minutes at room temperature allowing the centrifuge to coast to a stop without braking. The PRP was adjusted with PPP to a count of 2-3 x 10^8 platelets per mL. 400 uL of the PRP preparation and 50 uL of the compounds solution to be tested or saline were preincubated for 1 minute at 37°C in a BioData, Horsham, PA). 50 uL of adenosine 5' diphosphate (ADP) (50 um final concentration) was added to the cuvettes and the aggregation was monitored for 1 minute. All compounds are tested in duplicate. Results are calculated as follows: Percent of control = [(maximal OD minus initial OD of compound) divided by (maximal OD minus initial OD of control saline)] x 100. The % inhibition = 100 - (percent of control).
The compounds tested and their median inhibitory concentrations (IC50) are recorded in Table I. IC50's (dosage at which 50% of platelet aggregation is inhibited) were calculated by linear regression of the dose response curve.

| Molecule | inhibition at 10 µM [%] |
| --- | --- |
| N=C(N)c1ccc(NC(=O)C2CCCCC2C(=O)NC(CC(=O)O)c2cccnc2)cc1 (stereo not drawn) [Example 14] | 0 |

Same assay, conditions: Canis lupus familiaris; dog platelet-rich plasma, ADP 50 um final concentration; IC50 by linear regression of the dose response curve

| Molecule | IC50 [nM] |
| --- | --- |
| N=C(N)c1ccc(NC(=O)CCC(=O)NC(CC(=O)O)c2cccnc2)cc1 (racemic) [Example 2, D,L-β-[[4-[[4-(aminoiminomethyl)phenyl]amino]-1,4-dioxobutyl]amino]-3-pyridinepropanoic acid] | 93 |
| N=C(N)c1ccc(NC(=O)C2CC2C(=O)NC(CC(=O)O)c2cccnc2)cc1 (single isomer, unassigned; isomer 2) [Example 27] | > 10000 |
| N=C(N)c1ccc(NC(=O)CCC(=O)N[C@@H](CC(=O)O)c2cccnc2)cc1 [Example 5, βS-[[4-[[4-(aminoiminomethyl)phenyl]amino]-1,4-dioxobutyl]amino]-3-pyridinepropanoic acid] | 47 |
| N=C(N)c1ccc(NC(=O)CCC(=O)NC(CC(=O)O)c2ccccn2)cc1 (stereo not drawn) [Example 8] | 290 |
| N=C(N)c1ccc(NC(=O)CCC(=O)NC(CC(=O)O)c2ccncc2)cc1 (stereo not drawn) [Example 10] | 160 |
| N=C(N)c1ccc(NC(=O)CCC(=O)NC(CC(=O)O)c2ccc3c(c2)OCO3)cc1 (stereo not drawn) [Example 20, β-[[4-[[4-(aminoiminomethyl)phenyl]amino]-1,4-dioxobutyl]amino]-1,3-benzodioxole-5-propanoic acid] | 68 |
| CCOC(=O)CC(NC(=O)CCC(=O)Nc1ccc(C(=N)N)cc1)c1cc2c(cc1[N+](=O)[O-])OCO2 (stereo not drawn) [Example 21] | > 10000 |
| N=C(N)c1ccc(NC(=O)CCC(=O)NC(CC(=O)O)c2cncnc2)cc1 (stereo not drawn) [Example 22] | 59 |
| N=C(N)c1ccc(NC(=O)CCC(=O)NC(CC(=O)O)c2cc3c(cc2[N+](=O)[O-])OCO3)cc1 (stereo not drawn) [Example 34] | 1200 |

Same assay, conditions: dog platelet-rich plasma, ADP 50 um final concentration; IC50 by linear regression of the dose response curve

| Molecule | IC50 [nM] |
| --- | --- |
| (±) [[[4-[[4-(aminoiminomethyl)phenyl]-amino]-1,4-dioxo-(2E)-butenyl]amino]-3-pyridinepropanoic acid [Example 29] | 110 |
| (±)-1[[[4-[[4-(aminoiminomethyl)phenyl]amino]-1,4-dioxo-(2Z)-butenyl]amino]-3-pyridinepropanoic acid [Example 30] | > 10000 |
| Ethyl β-[[4-[[4-(aminoiminomethyl)phenyl]amino]1,4-dioxobutyl]amino]-1,3-benzodioxole-5-propanoate (isomer 1) [Example 31] | 7300 |
| Ethyl β-[[4-[[4-aminoiminomethyl) phenyl]amino]-1,4-dioxobutyl]amino]-1,3-benzodioxole-5-propanoate [Example 19] | > 10000 |
| β-[[4-[[3-(aminoiminomethyl)phenyl]amino]-1,5-dioxopentyl]amino]-3-pyridinepropanoic acid [Example 3] | > 10000 |
| β-[[4-[[4-(aminoiminomethyl)phenyl]amino]-1,4-dioxobutyl]amino]-1,3-benzodioxole-5-propanoic acid [Example 33] | 6800 |
| β-[[4-[[4-(aminoiminomethyl)phenyl]amino]-1,4-dioxobutyl]amino]-2-thiophenepropanoic acid [Example 18] | 120 |
| βR-[[4-[[4-(aminoiminomethyl)phenyl]amino]-1,4-dioxobutyl]amino]-3-pyridinepropanoic acid [Example 7] | 4800 |

System: collagen induced platelet aggregation
Assay: Inhibition of ex vivo collagen induced platelet aggregation after administration to dogs
Format: in vivo, dogs (Beagles)
Settings: after 24 hours, administered orally to dogs at a dose of 20 mg/kg
Procedure: The purpose of this assay is to determine the effects of antiplatelet compounds on ex vivo collagen induced platelet aggregation when administered either intravenously or orally to dogs.
Pretreatment (control) blood samples are drawn from either conscious or anesthetized dogs (Beagles) and centrifuged to prepare platelet rich plasma (PRP). Aggregatory response to collagen is measured in a aggregometer and used as Control. Compounds are administered, either intragasterically (either by capsule or stomach tube or intravenously). Blood samples are drawn at predetermined intervals after compound administration, PRP prepared and aggregation to collagen determined. Compound inhibition of aggregation is determined by comparing the aggregation response after compound administration to the pretreatment response. The study is continued for a maximum of 24 hours or until the platelet aggregation returns to control levels. (If aggregation is still inhibited after 7 hours, a blood sample is drawn the following morning and tested.) Duration of activity is determined by the length of time platelet aggregation is inhibited after compound administration.

| Molecule | inhibited platelet aggregation |
| --- | --- |
| CCOC(=O)C[C@H](NC(=O)CCC(=O)Nc1ccc(C(=N)N)cc1)c1cccnc1 [Example 4, Ethyl βS-[[4-[[4-(aminoiminomethyl)phenyl]amino]-1,4-dioxobutyl]amino]-3-pyridinepropanoate] | up to 100% |
| Ethyl-β-[[4-[[4-(aminoiminomethyl)phenyl] amino]-1,4-dioxobutyl]amino]-3-pyridinepropanoate [Example 1] | up to 100% |
| β-[[4-[[4-(aminoiminomethyl)phenyl]amino]-1,4-dioxobutyl]amino]-2-furanpropanoic acid [Example 16] | up to 100% |
